{
  "source": "patent EP0067711A2",
  "about": "“New 1-benzyl-3,4-dihydro-isoquinoline derivative” (CHINOIN Gyogyszer és Vegyészeti Termékek Gyára RT., priority 1981, dated 1982)",
  "key": {"[1]": {"tested_on": "acute coronary insufficiency induced by vasopressine", "test": "anti-angina activity: inhibition of vasopressine-induced acute coronary insufficiency (rise of T-wave on ECG), method of Papp and Szekeres", "format": "in vivo, rats belonging to the CFY strain", "conditions": "vasopressine 2 IU/kg i.v., pentobarbital anaesthetized CFY rats; papaverin = 1"}, "[2]": {"tested_on": "haemodynamic and cardiovascular system", "test": "general effects on the haemodynamic and cardiovascular system in pentobarbital anaesthetized dogs", "format": "in vivo", "set-up": "A. vertebralis flow, Changed value: unit not given here", "conditions": "2 mg/kg i.v."}, "[3]": {"tested_on": "electric fibrillation threshold of the auricle and ventricle", "test": "antiarrhythmial effect: change of electric fibrillation threshold in chloralose-urethane anaesthetized cats", "format": "in vivo", "conditions": "2 mg/kg i.v.", "method": "The antiarrhythmial effect is determined on chloralose-urethane anaesthetized cats [500/300 mg/kg i.p.] by measuring the changes of the electric fibrillation threshold of the auricle and ventricle respectively [method of Szekeres, Méhes and Papp: Brit. 0. Pharmacol. 17, 167 (1961) and that of Szekeres and Papp: Hdb. exp. Pharmacol. 16/3, 131 (1975) respectively]. The general effects exerted on the haemodynamic and cardiovascular system are tested on pentobarbital anaesthetized dogs (35 mg/kg i.v.)."}, "[4]": {"test": "acute toxicity on rats", "conditions": "rat, in vivo", "from_the_text": "(§1) The acute toxicity of the compound of the Formula I is characterized by the data enumerated in Table 3."}, "[5]": {"test": "acute toxicity on mice", "conditions": "mouse, in vivo, po", "from_the_text": "as §1"}},
  "data": [
    {"smiles": "CCOc1ccc(CC2=NCCc3cc(OCC)c(OCC)cc32)cc1O", "note": "[Formula I, 6,7-diethoxy-1-(4-ethoxy-3-hydroxy-benzyl)-3,4-dihydro-isoquinoline]", "values": [
      {"measurement": "anti-angina activity related to that of papaverin", "setting": "[1]", "result": 1.40},
      {"measurement": "A. carotis flow, Duration of effect", "setting": "[2]", "result": 7, "unit": "min"},
      {"measurement": "A. carotis flow, Percental difference", "setting": "[2]", "result": "+27"},
      {"measurement": "A. carotis resistance, Duration of effect", "setting": "[2]", "result": 7, "unit": "min"},
      {"measurement": "A. carotis resistance, Percental difference", "setting": "[2]", "result": -13},
      {"measurement": "A. femoralis flow, Duration of effect", "setting": "[2]", "result": 3, "unit": "min"},
      {"measurement": "A. femoralis flow, Percental difference", "setting": "[2]", "result": "+44"},
      {"measurement": "A. femoralis resistance, Duration of effect", "setting": "[2]", "result": 3, "unit": "min"},
      {"measurement": "A. femoralis resistance, Percental difference", "setting": "[2]", "result": -45},
      {"measurement": "A. vertebralis flow, Duration of effect", "setting": "[2]", "result": 2, "unit": "min"},
      {"measurement": "A. vertebralis flow, Percental difference", "setting": "[2]", "result": "+51"},
      {"measurement": "A. vertebralis resistance, Duration of effect", "setting": "[2]", "result": 2, "unit": "min"},
      {"measurement": "A. vertebralis resistance, Percental difference", "setting": "[2]", "result": -45},
      {"measurement": "Arterial blood pressure, Duration of effect", "setting": "[2]", "result": 5, "unit": "min"},
      {"measurement": "Arterial blood pressure, Percental difference", "setting": "[2]", "result": -22},
      {"measurement": "Contractibility of the left ventricle (dP/dt), Duration of effect", "setting": "[2]", "result": 2, "unit": "min"},
      {"measurement": "Contractibility of the left ventricle (dP/dt), Percental difference", "setting": "[2]", "result": -17},
      {"measurement": "Coronary flow, Duration of effect", "setting": "[2]", "result": 16, "unit": "min"},
      {"measurement": "Coronary flow, Percental difference", "setting": "[2]", "result": "+36"},
      {"measurement": "Coronary resistance, Duration of effect", "setting": "[2]", "result": 15, "unit": "min"},
      {"measurement": "Coronary resistance, Percental difference", "setting": "[2]", "result": -34},
      {"measurement": "Efficiency of cardial function, Duration of effect", "setting": "[2]", "result": 6, "unit": "min"},
      {"measurement": "Efficiency of cardial function, Percental difference", "setting": "[2]", "result": "+45"},
      {"measurement": "Frequence volume, Duration of effect", "setting": "[2]", "result": 35, "unit": "min"},
      {"measurement": "Frequence volume, Percental difference", "setting": "[2]", "result": "+60"},
      {"measurement": "Function of the left ventricle, Duration of effect", "setting": "[2]", "result": 7, "unit": "min"},
      {"measurement": "Function of the left ventricle, Percental difference", "setting": "[2]", "result": -20},
      {"measurement": "Heart frequence/min, Duration of effect", "setting": "[2]", "result": 31, "unit": "min"},
      {"measurement": "Heart frequence/min, Percental difference", "setting": "[2]", "result": -22},
      {"measurement": "Minute volume, Duration of effect", "setting": "[2]", "result": 4, "unit": "min"},
      {"measurement": "Minute volume, Percental difference", "setting": "[2]", "result": "+11"},
      {"measurement": "Myocardial oxygenization (O2 supply per O2 consumption), Duration of effect", "setting": "[2]", "result": 30, "unit": "min"},
      {"measurement": "Myocardial oxygenization (O2 supply per O2 consumption), Percental difference", "setting": "[2]", "result": "+74"},
      {"measurement": "Oxygen consumption of the left ventricle, Duration of effect", "setting": "[2]", "result": 22, "unit": "min"},
      {"measurement": "Oxygen consumption of the left ventricle, Percental difference", "setting": "[2]", "result": -29},
      {"measurement": "Total peripherial resistance, Duration of effect", "setting": "[2]", "result": 5, "unit": "min"},
      {"measurement": "Total peripherial resistance, Percental difference", "setting": "[2]", "result": -23},
      {"measurement": "Efficiency of cardial function, Changed value", "setting": "[2]; average ± S.E., basic value 0.11 ± 0.02", "result": "0.16 ± 0.02", "unit": "mkg/ml/100 g"},
      {"measurement": "Coronary resistance, Changed value", "setting": "[2]; average ± S.E., basic value 1.16 ±0.06", "result": "0.76 ± 0.06", "unit": "Hgmm/ml/min/100 g"},
      {"measurement": "Function of the left ventricle, Changed value", "setting": "[2]; average ± S.E., basic value 1.24 ± 0.08", "result": "0.99 ± 0.16", "unit": "mkg/min"},
      {"measurement": "Myocardial oxygenization (O2 supply per O2 consumption), Changed value", "setting": "[2]; average ± S.E., basic value 1.70 ± 0.07", "result": "2.95 ± 0.21"},
      {"measurement": "A. carotis resistance, Changed value", "setting": "[2]; average ± S.E., basic value 2.33 ± 0.23", "result": "2.02 ± 0.32", "unit": "Hgmm/ml/min"},
      {"measurement": "A. vertebralis resistance, Changed value", "setting": "[2]; average ± S.E., basic value 3.28 ± 0.33", "result": "1.81 ± 0.17", "unit": "Hgmm/ml/min"},
      {"measurement": "A. femoralis resistance, Changed value", "setting": "[2]; average ± S.E., basic value 4.84 ± 0.86", "result": "2.66 ± 0.42", "unit": "Hgmm/ml/min"},
      {"measurement": "Frequence volume, Changed value", "setting": "[2]; average ± S.E., basic value 5.5 ± 0.3", "result": "8.8 ± 0.9", "unit": "mL"},
      {"measurement": "Oxygen consumption of the left ventricle, Changed value", "setting": "[2]; average ± S.E., basic value 11.6 ± 0.9", "result": "8.2 ± 1.2", "unit": "ml/min/100 g"},
      {"measurement": "A. femoralis flow, Changed value", "setting": "[2]; average ± S.E., basic value 34 ± 7", "result": "49 ± 10", "unit": "mL/min"},
      {"measurement": "A. vertebralis flow, Changed value", "setting": "[2]; average ± S.E., basic value 43 ± 6", "result": "65 ± 9"},
      {"measurement": "A. carotis flow, Changed value", "setting": "[2]; average ± S.E., basic value 70 ± 7", "result": "89 ± 13", "unit": "mL/min"},
      {"measurement": "Coronary flow, Changed value", "setting": "[2]; average ± S.E., basic value 95 ± 5", "result": "129 ± 9", "unit": "ml/min/100 g"},
      {"measurement": "Arterial blood pressure, Changed value", "setting": "[2]; average ± S.E., basic value 121 ± 5", "result": "94 ± 4", "unit": "Hgmm"},
      {"measurement": "Heart frequence/min, Changed value", "setting": "[2]; average ± S.E., basic value 146 ± 8", "result": "114 ± 9", "unit": "min⁻¹"},
      {"measurement": "Minute volume, Changed value", "setting": "[2]; average ± S.E., basic value 875 ± 42", "result": "975 ± 34", "unit": "mL/min"},
      {"measurement": "Contractibility of the left ventricle (dP/dt), Changed value", "setting": "[2]; average ± S.E., basic value 5105 ± 434", "result": "4248 ± 865", "unit": "Hgmm/sec"},
      {"measurement": "Total peripherial resistance, Changed value", "setting": "[2]; average ± S.E., basic value 10652 ± 991", "result": "8185 ± 748", "unit": "dyn. sec. cm^-5"},
      {"measurement": "Arterial blood pressure, Duration of effect", "setting": "[3]", "result": 9, "unit": "min"},
      {"measurement": "Arterial blood pressure, Percental difference", "setting": "[3]", "result": -43},
      {"measurement": "Auricle fibrillation threshold, Duration of effect", "setting": "[3]", "result": 11, "unit": "min"},
      {"measurement": "Auricle fibrillation threshold, Percental difference", "setting": "[3]", "result": "+58"},
      {"measurement": "Ventricle fibrillation threshold, Duration of effect", "setting": "[3]", "result": 13, "unit": "min"},
      {"measurement": "Ventricle fibrillation threshold, Percental difference", "setting": "[3]", "result": "+25"},
      {"measurement": "Auricle fibrillation threshold, Changed value", "setting": "[3]; average ± S.E., basic value 0.73 ± 0.10", "result": "1.15 ± 0.11", "unit": "mA"},
      {"measurement": "Ventricle fibrillation threshold, Changed value", "setting": "[3]; average ± S.E., basic value 2.07 ± 0.10", "result": "2.58 ± 0.09", "unit": "mA"},
      {"measurement": "Arterial blood pressure, Changed value", "setting": "[3]; average ± S.E., basic value 139 ± 5", "result": "79 ± 8", "unit": "Hgmm"},
      {"measurement": "LD50", "setting": "[4]; iv, i.v. on rats ♀", "result": 24.9, "unit": "mg/kg"},
      {"measurement": "LD50", "setting": "[4]; iv, i.v. on rats ♂", "result": 23, "unit": "mg/kg"},
      {"measurement": "LD50", "setting": "[4]; po, p.o. on rats ♀", "result": 625, "unit": "mg/kg"},
      {"measurement": "LD50", "setting": "[4]; po, p.o. on rats ♂", "result": 493, "unit": "mg/kg"},
      {"measurement": "LD50", "setting": "[5]; p.o. on mice ♀", "result": 165, "unit": "mg/kg"},
      {"measurement": "LD50", "setting": "[5]; p.o. on mice ♂", "result": 269, "unit": "mg/kg"}
    ]}
  ]
}
